Results as given in patent US20140248361A1, “HERBAL EXTRACT COMPOSITION AND A PROCESS THEREOF” (PRASAN SOLUTIONS (INDIA) PVT LTD, priority 2012, published 2014).

Experiments:
[1] = Effect of particle size on antioxidant activity (Rancimat induction time) in palm oil; details: 200 ppm in palm oil; Rancimat 120° C.
Procedure: (§2) Effect of particle size analysis on antioxidant activity is analysed with the help of Rancimat (Metrohm 743) which gives oxidative stability index based on the induction time (h). Rancimat analysis is carried out at two different temperature in order to set relationship between induction time and temperature of the studies.
(§3) In this, we have analyzed the particle size of samples with the help of Particle Size Analyzer (Microtrac, S3500) and its antioxidant activity with the help of Rancimat (Metrohm 743).

[2] = Totox value of palm oil on storage; details: ambient temperature
Procedure: (§4) The shelf life of oil is studied by carrying out chemical analysis, which include studying peroxide value (represents extent of primary oxidation), Para-anisidine value (represents extent of secondary oxidation) and totox value (reflects total oxidation of oil). These parameters are determined for 1 kg of untreated oil and treated oil at every 15 days interval for samples stored at ambient temperature and at every 7 days interval for samples stored at 50° C. The treated oil being, the oil upon addition of 200 ppm of TBHQ (sample-A), 200 ppm of BHA (sample-B), 200 ppm and 500 ppm of pulverized green tea extract with 90% polyphenol (sample-C), 200 ppm and 500 ppm of rosemary extract (sample-D), 200 ppm and 500 ppm of green tea extract after cryogenic grinding (sample-E), 200 ppm and 500 ppm of crude green tea extract (sample-F) and PRESOL at 200 ppm and 500 ppm. The untreated oil is the control sample without any antioxidant.
(§5) The threshold limit for per oxide value under which oil can be used for safe consumption is 10 meq of O2/Kg oil. Similarly, the threshold limit of para-anisidine value and Totox value is 10 and 30, respectively.

[3] = Frying cycle analysis of sunflower oil (total polar compounds)
Procedure: (§1) Palm oil and sunflower oil with antioxidants added to it are obtained from a local refinery. Frying studies are carried out with control oil and by adding TBHQ (Sample A), BHA (Sample B), GT Pulverized (Sample C), ROS (Sample D), GT Cryo grinded (Sample E), GT Crude Extract (Sample F) and PRESOL, respectively to the oils. Experiments are carried out a concentration of 200 ppm and 500 ppm. Fresh potatoes of less reduced sugar content variety are used throughout the experiment which is purchased form a local supermarket. Oil samples are withdrawn from the fryer at the end of every day and stored at −4° C. until it is tested for quality parameters viz, total polar compounds. Polar compounds present in oil and fats are measured by column chromatography using standard method, ES ISO 8420:2012.

[4] = Estimation of shelf life of sunflower oil (Rancimat temperature extrapolation); details: 200 ppm
Procedure: (§6) This is an aid for estimating the shelf life of oils and fats. The extrapolation makes use of the relationship between the measured induction time and the temperature given by van't Hoff's law. Several measurements are made at different temperatures and then extrapolated to the storage temperature. The values so obtained allow estimation of the storage stability of the oil or fat containing PRESOL.
(§7) The shelf life is calculated using Rancimat shelf life calculator.

[5] = Frying cycle analysis of palm oil (total polar compounds)
Procedure: as §1

[6] = Synergism of TBHQ and PRESOL combination (Rancimat) in palm oil
Procedure: Synergism of TBHQ and PRESOL is analyzed in palm oil. If the frying industry is considered, synthetic antioxidant TBHQ is being added to the oils. […] In order to overcome this limitation, TBHQ is fortified with PRESOL and added to vegetable oils in order to increase the frying cycles which ultimately increases the shelf life of end products. […] The below table 25 illustrates all the combination of fortification of TBHQ and PRESOL used in palm oil to illustrate maximum activity of fortified combination. Synergism is calculated based on the below equation: [formula]

[7] = Effect of particle size on antioxidant activity (Rancimat induction time) in sunflower oil; details: 200 ppm in sunflower oil; Rancimat 100° C.
Procedure: as §2, §3

[8] = Peroxide value of palm oil on storage
Procedure: as §4, §5

[9] = Estimation of shelf life of palm oil (Rancimat temperature extrapolation); details: 200 ppm
Procedure: as §6, §7

[10] = Oil stability index (Rancimat) of sunflower oil; details: 200 ppm
Procedure: (§8) As used herein, ‘Oil Stability Index (OSI)’ is an American Oil Chemists Society (AOCS) approved method that determines the relative resistance of fat and oil samples to oxidation, which is defined by the following equation—
(§9) The oil stability index is determined using the Metrohm's Rancimat (Metrohm 743 Rancimat).
4.0 g of sunflower oil is weighed into the reaction vessel. The reaction vessel filled with oil is placed in a heating block. The temperature of the block is maintained at 80° C., 100° C. and 120° C., respectively. The oil is heated at the said temperatures, followed by passing air at a flow rate of 20 L/h. Flowing of air through the oil produces peroxides during primary oxidation and organic acids having low molecular weight, aldehydes and ketones with typical rancid odor during the secondary oxidation phase. These compounds are conveyed by the air flow into measurement vessel containing distilled water where conductivity is being checked continuously by sensor.

[11] = Shelf life of canola oil; details: 200 ppm
Procedure: D. Determination of Shelf Life of Canola Oil in the Presence of PRESOL • Shelf life of canola oil is analyzed upon adding 200 ppm of TBHQ (sample-A), BHA (sample-B), green tea extract with 90% polyphenol (sample-C), rosemary extract (sample-D), green tea extract after cryogenic grinding (sample-E), and PRESOL, respectively to canola oil.

[12] = Para-anisidine value of palm oil on storage
Procedure: as §4, §5

[13] = Oil stability index (Rancimat) of palm oil; details: 200 ppm
Procedure: as §8, §9
4.0 g of palm oil is weighed into the reaction vessel. The reaction vessel filled with oil is placed in a heating block. The temperature of the block is maintained at 100° C., 120° C. and 140° C., respectively. The oil is heated at the said temperatures, followed by passing air at a flow rate of 20 L/h. Flowing of air through the oil produces peroxides during primary oxidation and organic acids having low molecular weight, aldehydes and ketones with typical rancid odor during the secondary oxidation phase. These compounds are conveyed by the air flow into measurement vessel containing distilled water where conductivity is being checked continuously by sensor.

[14] = ambient temperature, day 0, 200 ppm
[15] = ambient temperature, day 15, 200 ppm
[16] = ambient temperature, day 30, 200 ppm
[17] = ambient temperature, day 45, 200 ppm
[18] = ambient temperature, day 60, 200 ppm
[19] = ambient temperature, day 75, 200 ppm
[20] = ambient temperature, day 90, 200 ppm
[21] = ambient temperature, day 105, 200 ppm
[22] = ambient temperature, day 120, 200 ppm
[23] = ambient temperature, day 135, 200 ppm
[24] = ambient temperature, day 150, 200 ppm
[25] = ambient temperature, day 165, 200 ppm
[26] = ambient temperature, day 180, 200 ppm

- Oxidative Stability Index (OSI) ([10]; 80° C.): 3.01
- Oxidative Stability Index (OSI) ([10]; 100° C.): 2.88
- Oxidative Stability Index (OSI) ([10]; 120° C.): 2.61
- Oxidative Stability Index (OSI) ([13]; 100° C.): 2.30
- Oxidative Stability Index (OSI) ([13]; 120° C.): 2.17
- Oxidative Stability Index (OSI) ([13]; 140° C.): 2.15
SMILES: CC(C)(C)c1cc(O)ccc1O [Sample A, tertiary butyl hydroquinone]
- Induction Period (h) of PO at 120° C. [1]: 20.93 h
- Totox value ([2]; day 0, 200 ppm): 3.497
- Totox value ([2]; day 15, 200 ppm): 4.585
- Totox value ([2]; day 30, 200 ppm): 5.879
- Totox value ([2]; day 45, 200 ppm): 6.228
- Totox value ([2]; day 60, 200 ppm): 6.157
- Totox value ([2]; day 75, 200 ppm): 6.441
- Totox value ([2]; day 90, 200 ppm): 6.400
- Totox value ([2]; day 105, 200 ppm): 6.976
- Totox value ([2]; day 120, 200 ppm): 7.122
- Totox value ([2]; day 135, 200 ppm): 7.339
- Totox value ([2]; day 150, 200 ppm): 7.916
- Totox value ([2]; day 165, 200 ppm): 8.258
- Totox value ([2]; day 180, 200 ppm): 8.614
- Total Polar compounds of sunflower oil ([3]; 200 ppm, frying cycle 0): 3.746
- Total Polar compounds of sunflower oil ([3]; 200 ppm, frying cycle 8): 6.375
- Total Polar compounds of sunflower oil ([3]; 200 ppm, frying cycle 16): 13.632
- Total Polar compounds of sunflower oil ([3]; 200 ppm, frying cycle 24): 18.505
- Total Polar compounds of sunflower oil ([3]; 200 ppm, frying cycle 32): 23.123
- Total Polar compounds of sunflower oil ([3]; 200 ppm, frying cycle 40): 28.648
- frying cycle after which threshold limit for total polar compounds is crossed ([3]; sunflower oil): 40 cycle
- Number of batches fried ([3]; sunflower oil (SFO), potato chips, 200 ppm): 40 batches
- Shelf Life (days) at 30° C. [4]: 171.0 days
- frying cycle after which threshold limit for total polar compounds is crossed ([5]; palm oil): 40 cycle
- Number of batches fried ([5]; palm oil (PO), potato chips, 200 ppm): 40 batches
- Increase in OSI (%) ([6]; 50 ppm alone): 5.12%
- Induction Time (H) at 120 C. ([6]; 50 ppm alone): 9.57 H
- OSI ([6]; 50 ppm alone): 1.054
- increase in induction time as compared to control (X-C) ([6]; 50 ppm alone): 0.49
- Increase in OSI (%) ([6]; 100 ppm alone): 17.53%
- Induction Time (H) at 120 C. ([6]; 100 ppm alone): 11.01 H
- OSI ([6]; 100 ppm alone): 1.21
- increase in induction time as compared to control (X-C) ([6]; 100 ppm alone): 1.93
- Increase in OSI (%) ([6]; 200 ppm alone): 36.24%
- Induction Time (H) at 120 C. ([6]; 200 ppm alone): 14.24 H
- OSI ([6]; 200 ppm alone): 1.57
- increase in induction time as compared to control (X-C) ([6]; 200 ppm alone): 5.16
- Induction Period (h) of SFO 100° C. [7]: 26.82 h
- Peroxide value ([8]; 50° C., day 0, 200 ppm): 0.482
- Peroxide value ([8]; 50° C., day 7, 200 ppm): 1.309
- Peroxide value ([8]; 50° C., day 15, 200 ppm): 1.836
- Peroxide value ([8]; 50° C., day 22, 200 ppm): 1.887
- Peroxide value ([8]; 50° C., day 30, 200 ppm): 2.005
- Peroxide value ([8]; 50° C., day 37, 200 ppm): 3.074
- Peroxide value ([8]; 50° C., day 45, 200 ppm): 3.686
- Peroxide value ([8]; 50° C., day 52, 200 ppm): 4.102
- Peroxide value ([8]; 50° C., day 60, 200 ppm): 4.491
- Peroxide value ([8]; 50° C., day 67, 200 ppm): 4.75
- Peroxide value ([8]; 50° C., day 75, 200 ppm): 4.893
- Peroxide value ([8]; 50° C., day 82, 200 ppm): 5.209
- Peroxide value ([8]; 50° C., day 90, 200 ppm): 5.395
- Peroxide value [8, 14]: 0.465
- Peroxide value [8, 15]: 0.762
- Peroxide value [8, 16]: 1.417
- Peroxide value [8, 17]: 1.558
- Peroxide value [8, 18]: 1.771
- Peroxide value [8, 19]: 1.855
- Peroxide value [8, 20]: 1.814
- Peroxide value [8, 21]: 1.88
- Peroxide value [8, 22]: 1.91
- Peroxide value [8, 23]: 1.951
- Peroxide value [8, 24]: 2.222
- Peroxide value [8, 25]: 2.31
- Peroxide value [8, 26]: 2.403
- Shelf Life (days) at 30° C. [9]: 617.0 days
- Induction Time ([10]; 80° C.): 109.76 h
- Induction Time ([10]; 100° C.): 26.82 h
- Induction Time ([10]; 120° C.): 6.13 h
- Shelf Life (No. Of Days) [11]: 181 days
- Para-anisidine value ([12]; 50° C., day 0, 200 ppm): 2.69
- Para-anisidine value ([12]; 50° C., day 7, 200 ppm): 3.062
- Para-anisidine value ([12]; 50° C., day 15, 200 ppm): 3.296
- Para-anisidine value ([12]; 50° C., day 22, 200 ppm): 3.395
- Para-anisidine value ([12]; 50° C., day 30, 200 ppm): 3.74
- Para-anisidine value ([12]; 50° C., day 37, 200 ppm): 4.052
- Para-anisidine value ([12]; 50° C., day 45, 200 ppm): 4.209
- Para-anisidine value ([12]; 50° C., day 52, 200 ppm): 4.685
- Para-anisidine value ([12]; 50° C., day 60, 200 ppm): 5.091
- Para-anisidine value ([12]; 50° C., day 67, 200 ppm): 5.208
- Para-anisidine value ([12]; 50° C., day 75, 200 ppm): 5.514
- Para-anisidine value ([12]; 50° C., day 82, 200 ppm): 5.601
- Para-anisidine value ([12]; 50° C., day 90, 200 ppm): 5.827
- Para-anisidine value [12, 14]: 2.566
- Para-anisidine value [12, 15]: 3.062
- Para-anisidine value [12, 16]: 3.045
- Para-anisidine value [12, 17]: 3.113
- Para-anisidine value [12, 18]: 2.615
- Para-anisidine value [12, 19]: 2.731
- Para-anisidine value [12, 20]: 2.772
- Para-anisidine value [12, 21]: 3.217
- Para-anisidine value [12, 22]: 3.303
- Para-anisidine value [12, 23]: 3.438
- Para-anisidine value [12, 24]: 3.473
- Para-anisidine value [12, 25]: 3.639
- Para-anisidine value [12, 26]: 3.808
- Induction Time ([13]; 100° C.): 95.76 h
- Induction Time ([13]; 120° C.): 20.93 h
- Induction Time ([13]; 140° C.): 5.26 h
